For orientation: inhibition means the share of the control response that was lost under treatment. What is called IC50 is the point on the concentration scale where inhibition reaches its midpoint.

The text below walks through data of patent publication US20250368649A1, “TETRAHYDROPYRIDOPYRIMIDINE PAN-KRAS INHIBITORS” (Mirati Therapeutics, Inc., priority 2022, published 2025).

The target of one assay is KRas G12S (Homo sapiens, UniProt P01116, G12S). The assay is classed as binding. The following applies: for IC50: TR-FRET displacement, read-out: Binding to KRas (IC50 nM) G12S.
KRas G12S, sequence (P01116 1-169 isoform P01116-2 G12S): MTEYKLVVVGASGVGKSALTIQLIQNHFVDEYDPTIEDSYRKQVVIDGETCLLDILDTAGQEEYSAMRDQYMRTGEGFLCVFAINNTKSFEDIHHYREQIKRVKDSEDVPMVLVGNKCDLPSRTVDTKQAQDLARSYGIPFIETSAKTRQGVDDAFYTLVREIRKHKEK
Another assay addresses KRas G12R (Homo sapiens, UniProt P01116, G12R). Put plainly: biochemical. The following applies: Binding to KRas (IC50 nM) G12R, TR-FRET displacement, KRas G12R.
Another assay deals with KRas Q61H (Homo sapiens, UniProt P01116, Q61H). Put plainly: KRas binding assay (TR-FRET displacement), KRas Q61H. To be noted: for IC50: TR-FRET displacement. (TR-FRET usually uses a lanthanide donor and a delayed reading to cut background.)
KRas Q61H, sequence (P01116 1-169 isoform P01116-2 Q61H): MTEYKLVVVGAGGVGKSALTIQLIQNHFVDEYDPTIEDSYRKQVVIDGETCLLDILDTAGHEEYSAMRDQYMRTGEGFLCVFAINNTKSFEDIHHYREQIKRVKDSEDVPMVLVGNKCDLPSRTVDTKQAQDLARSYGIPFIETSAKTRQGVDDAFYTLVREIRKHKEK
A further assay concerns H727 cells. Put plainly: Inhibition of KRas-mediated phosphorylation of ERK (Cisbio HTRF pERK), H727 cells. The assay is classed as cell-based. To be noted: Homo sapiens, NCI-H727, 3 h, 3 hr compound incubation, Cisbio pERK HTRF.
Another assay concerns the target KRas G12A (Homo sapiens, UniProt P01116, G12A). It counts as binding. To be noted: for IC50: TR-FRET displacement, read-out: Binding to KRas (IC50 nM) G12A.
The next assay addresses KRas G12V (Homo sapiens, UniProt P01116, G12V). Nature of the assay: biochemical. To be noted: Binding to KRas (IC50 nM) G12V, TR-FRET displacement, KRas G12V.
The test system of the next assay is MKN1 cells. Put plainly: Inhibition of KRas-mediated phosphorylation of ERK (Cisbio HTRF pERK), MKN1 cells. The assay is classed as cell-based. The following applies: Homo sapiens, MKN-1, 3 hour compound incubation, Cisbio pERK HTRF. The method in brief: (§1)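 Cells were seeded on day 1 at 6,000 per well in RPMI containing 10% FBS before compound treatment and phospho-ERK detection.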

In the next assay the target is KRas G12C (Homo sapiens, UniProt P01116, G12C). The assay is classed as binding. The following applies: for IC50: TR-FRET displacement, read-out: Binding to KRas (IC50 nM) G12C.
KRas G12C, sequence (P01116 1-169 isoform P01116-2 G12C): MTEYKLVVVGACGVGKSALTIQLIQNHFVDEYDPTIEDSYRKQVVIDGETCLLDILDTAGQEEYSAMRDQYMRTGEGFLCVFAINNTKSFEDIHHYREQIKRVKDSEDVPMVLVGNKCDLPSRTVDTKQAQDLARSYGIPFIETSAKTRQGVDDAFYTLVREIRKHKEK
Another assay deals with KRas G13D (Homo sapiens, UniProt P01116, G13D). It counts as binding. The following applies: for IC50: TR-FRET displacement, read-out: Binding to KRas (IC50 nM) G13D.
KRas G13D, sequence (P01116 1-169 isoform P01116-2 G13D): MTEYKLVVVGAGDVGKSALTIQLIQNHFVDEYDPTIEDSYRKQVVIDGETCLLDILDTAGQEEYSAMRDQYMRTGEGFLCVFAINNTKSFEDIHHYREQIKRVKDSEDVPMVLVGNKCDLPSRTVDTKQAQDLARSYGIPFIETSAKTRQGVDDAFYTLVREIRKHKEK
The target of a further assay is KRas WT (Homo sapiens, UniProt P01116). Nature of the assay: KRas binding assay (TR-FRET displacement), KRas WT. The following applies: for IC50: TR-FRET displacement.
KRas WT, sequence (P01116 1-169 isoform P01116-2): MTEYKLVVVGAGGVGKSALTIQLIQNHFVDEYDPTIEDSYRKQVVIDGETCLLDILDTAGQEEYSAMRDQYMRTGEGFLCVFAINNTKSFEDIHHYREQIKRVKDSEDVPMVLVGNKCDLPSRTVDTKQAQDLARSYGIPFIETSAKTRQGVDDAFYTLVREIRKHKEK
The subject of a further assay is HCT116 cells. Nature of the assay: Inhibition of KRas-mediated phosphorylation of ERK (Cisbio HTRF pERK), HCT116 cells. To be noted: Homo sapiens, HCT-116, 3 h, 3 hr compound incubation, Cisbio pERK HTRF. It counts as cell-based.
The next assay addresses KRas G12D (Homo sapiens, UniProt P01116, G12D). Nature of the assay: biochemical. To be noted: Binding to KRas (IC50 nM) G12D, TR-FRET displacement, KRas G12D.
For a further assay, the system named is H460 cells. Nature of the assay: Inhibition of KRas-mediated phosphorylation of ERK (Cisbio HTRF pERK), H460 cells. The assay is classed as cell-based. The following applies: Homo sapiens, NCI-H460, 3 h, 3 hr compound incubation, Cisbio pERK HTRF.
The test system of a further assay is ASPC1 cells. Nature of the assay: Inhibition of KRas-mediated phosphorylation of ERK (Cisbio HTRF pERK), ASPC1 cells. The assay is classed as cell-based. The following applies: Homo sapiens, ASPC1, 3 h, AsPC-1 cells; 3 hr compound incubation; Cisbio pERK HTRF.
A further assay concerns A549 cells. Nature of the assay: Inhibition of KRas-mediated phosphorylation of ERK (Cisbio HTRF pERK), A549 cells. The assay is classed as cell-based. The following applies: Homo sapiens, A549, 3 h, 3 hr compound incubation, Cisbio pERK HTRF.
A further assay relates to PSN1 cells. Nature of the assay: Inhibition of KRas-mediated phosphorylation of ERK (Cisbio HTRF pERK), PSN1 cells. It counts as cell-based. The following applies: Homo sapiens, PSN1, 3 h, 3 hour compound incubation, Cisbio pERK HTRF. A digest of the protocol:
as §1

A further assay concerns H358 cells. Put plainly: Inhibition of KRas-mediated phosphorylation of ERK (Cisbio HTRF pERK), H358 cells. It counts as cell-based. To be noted: Homo sapiens, NCI-H358, 3 h, 3 hr compound incubation, Cisbio pERK HTRF.

KRas G12D, sequence (P01116 1-169 isoform P01116-2 G12D): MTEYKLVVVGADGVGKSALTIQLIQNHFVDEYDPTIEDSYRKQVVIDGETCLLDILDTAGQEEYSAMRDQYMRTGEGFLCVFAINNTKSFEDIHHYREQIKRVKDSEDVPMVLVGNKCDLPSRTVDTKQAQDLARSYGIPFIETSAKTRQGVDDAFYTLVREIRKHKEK
KRas G12R, sequence (P01116 1-169 isoform P01116-2 G12R): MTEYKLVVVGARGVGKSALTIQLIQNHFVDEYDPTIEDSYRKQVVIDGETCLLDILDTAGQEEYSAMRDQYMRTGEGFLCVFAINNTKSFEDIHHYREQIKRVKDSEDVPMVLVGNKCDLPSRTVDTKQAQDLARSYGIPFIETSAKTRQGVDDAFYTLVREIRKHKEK
KRas G12V, sequence (P01116 1-169 isoform P01116-2 G12V): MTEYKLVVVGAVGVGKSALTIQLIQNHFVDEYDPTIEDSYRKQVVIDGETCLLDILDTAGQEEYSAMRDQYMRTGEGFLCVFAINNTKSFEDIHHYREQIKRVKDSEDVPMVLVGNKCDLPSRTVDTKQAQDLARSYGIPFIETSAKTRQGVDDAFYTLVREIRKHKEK
KRas G12A, sequence (P01116 1-169 isoform P01116-2 G12A): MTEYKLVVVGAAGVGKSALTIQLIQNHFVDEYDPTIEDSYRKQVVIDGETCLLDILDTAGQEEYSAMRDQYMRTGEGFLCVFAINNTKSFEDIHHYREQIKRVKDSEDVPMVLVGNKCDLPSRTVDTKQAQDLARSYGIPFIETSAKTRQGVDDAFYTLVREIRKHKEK

`CCc1c(F)ccc2cc(O)cc(N3CCc4c(nc(OC[C@@]56CCCN5C[C@H](F)C6)nc4N4CCCn5nc(C(=O)N6CCN(C)CC6)cc5C4)C3)c12` [Example 402, (5-(7-(8-ethyl-7-fluoro-3-hydroxynaphthalen-1-yl)-2-(((2R,7aS)-2-fluorohexahydro-1H-pyrrolizin-7a-yl)methoxy)-5,6,7,8-tetrahydropyrido[3,4-d]pyrimidin-4-yl)-5,6,7,8-tetrahydro-4H-pyrazolo[1,5-a][1,4]diazepin-2-yl)(4-methylpiperazin-1-yl)methanone]: the inhibition at 0.01 µM amounted to 99% at KRas G12S (single point, 10 nM compound, read-out: Binding to KRas (% inhibition at 10 nM) G12S); 98% at KRas Q61H (single point, 10 nM compound); 98% at KRas G12A (single point, 10 nM compound, read-out: Binding to KRas (% inhibition at 10 nM) G12A); 100% on KRas G12C (single point, 10 nM compound, read-out: Binding to KRas (% inhibition at 10 nM) G12C); 98% on KRas G13D (single point, 10 nM compound, read-out: Binding to KRas (% inhibition at 10 nM) G13D); 98% on KRas WT (single point, 10 nM compound). Besides, the half-maximal inhibitory concentration (IC50) on KRas G12R is less than 2 nM; in the assay on H727 cells, 10 nM; on KRas G12V, less than 2 nM; in the assay on MKN1 cells, 5.7 nM; in the assay with HCT116 cells, 54 nM; at KRas G12D, less than 2 nM. Further, the half-maximal inhibitory concentration (IC50) amounted to 24 nM in the assay with H460 cells, 2 nM in the assay with ASPC1 cells, 23 nM in the assay with A549 cells and 3910 nM with PSN1 cells.

For the molecule `C[C@@H]1C[C@@H]1c1c(Cl)cc2[nH]ncc2c1N1CCc2c(nc(OCC34CCCN3CCC4)nc2N2CCC[C@]3(C2)NC(=O)NC3=O)C1` [Example 449, (R)-7-(7-(6-chloro-5-((1S,2R)-2-methylcyclopropyl)-1H-indazol-4-yl)-2-((hexahydro-1H-pyrrolizin-7a-yl)methoxy)-5,6,7,8-tetrahydropyrido[3,4-d]pyrimidin-4-yl)-1,3,7-triazaspiro[4.5]decane-2,4-dione], the half-inhibitory concentration (IC50) at KRas G12S was less than 2 nM; at KRas G12R, less than 2 nM; at KRas Q61H it was less than 2 nM; in the assay on H727 cells, 2690 nM; on KRas G12A, less than 2 nM; on KRas G12V it was less than 2 nM. Further, the IC50 with MKN1 cells was 53.7 nM; on KRas G12C it was less than 2 nM; on KRas G13D, less than 2 nM; at KRas WT, less than 2 nM; on KRas G12D it was 3 nM; in the assay on ASPC1 cells it was 5760 nM. In addition, the half-maximal inhibitory concentration (IC50) in the assay on PSN1 cells is more than 10000 nM.

Consider `CN(C)C(=O)c1cc2n(n1)CCCN(c1nc(OC[C@@]34CCCN3C[C@H](F)C4)nc3c1CCN(c1cccc4cccc(Cl)c14)C3)C2` [Example 483, 5-(7-(8-chloronaphthalen-1-yl)-2-(((2R,7aS)-2-fluorohexahydro-1H-pyrrolizin-7a-yl)methoxy)-5,6,7,8-tetrahydropyrido[3,4-d]pyrimidin-4-yl)-N,N-dimethyl-5,6,7,8-tetrahydro-4H-pyrazolo[1,5-a][1,4]diazepine-2-carboxamide], for which the IC50 is 46 nM at KRas G12S; 57 nM at KRas G12R; 238 nM at KRas Q61H; 1220 nM in the assay on H727 cells; 81 nM on KRas G12A; 20 nM at KRas G12V. Further, the IC50 is 1470 nM in the assay with MKN1 cells; 42 nM on KRas G12C; 239 nM on KRas G13D; 150 nM on KRas WT; 9 nM at KRas G12D; 1160 nM with ASPC1 cells. In the assay with PSN1 cells, this molecule returned an IC50 of more than 10000 nM.

As for `CCc1c(F)ccc2cc(O)cc(N3CCc4c(nc(OCC56CCCN5C/C(=C\F)C6)nc4N4CCCn5nc(C(=O)N(C)C)cc5C4)C3)c12` (stereo not shown) [Example 578, (Z)-5-(7-(8-ethyl-7-fluoro-3-hydroxynaphthalen-1-yl)-2-((2-(fluoromethylene)tetrahydro-1H-pyrrolizin-7a(5H)-yl)methoxy)-5,6,7,8-tetrahydropyrido[3,4-d]pyrimidin-4-yl)-N,N-dimethyl-5,6,7,8-tetrahydro-4H-pyrazolo[1,5-a][1,4]diazepine-2-carboxamide], the IC50 in the assay with H358 cells is 1 nM; on KRas G12S, less than 2 nM; in the assay with H727 cells, 2 nM; on KRas G12V, less than 2 nM; in the assay with MKN1 cells, 0.3 nM; on KRas G12C it was less than 2 nM. In addition, the IC50 on KRas WT is less than 2 nM; in the assay with HCT116 cells, 36 nM; at KRas G12D, less than 2 nM; with H460 cells it was 7 nM; in the assay on ASPC1 cells, 1 nM; in the assay on A549 cells, 4 nM. Further, in the assay with PSN1 cells, the IC50 was 1040 nM.

As to `C=C1CN2CC(=C)CC2(COc2nc3c(c(N4C[C@@H]5C[C@H](C4)[C@H](O)C5)n2)CCN(c2cc(O)cc4ccc(F)c(CC)c24)C3)C1` [Example 579, (1R,5R,6R)-3-(2-((2,6-dimethylenetetrahydro-1H-pyrrolizin-7a(5H)-yl)methoxy)-7-(8-ethyl-7-fluoro-3-hydroxynaphthalen-1-yl)-5,6,7,8-tetrahydropyrido[3,4-d]pyrimidin-4-yl)-3-azabicyclo[3.2.1]octan-6-ol], the IC50 in the assay on H358 cells came out at 204 nM; on KRas G12S, 3 nM; with H727 cells it was 513 nM; at KRas G12V it was 2 nM; in the assay with MKN1 cells, 18.3 nM; at KRas G12C, 4 nM. For the same molecule, the IC50 at KRas WT was 4 nM; in the assay on HCT116 cells, 968 nM; on KRas G12D, 7 nM; in the assay on H460 cells, 227 nM; with ASPC1 cells, 699 nM; with A549 cells, 168 nM. In the assay on PSN1 cells, this molecule registered a concentration for half-maximal inhibition (IC50) of more than 10000 nM.

Consider `C=C1CN2CCCC2(COc2nc3c(c(N4CCC[C@@](C)(O)C4)n2)CCN(c2cc(O)cc4ccc(F)c(CC)c24)C3)C1` (stereo partly drawn) [Example 580, (3R)-1-(7-(8-ethyl-7-fluoro-3-hydroxynaphthalen-1-yl)-2-((2-methylenetetrahydro-1H-pyrrolizin-7a(5H)-yl)methoxy)-5,6,7,8-tetrahydropyrido[3,4-d]pyrimidin-4-yl)-3-methylpiperidin-3-ol], for which the IC50 was 14 nM in the assay with H358 cells; less than 2 nM on KRas G12S; 71 nM with H727 cells; less than 2 nM at KRas G12V; 1 nM with MKN1 cells; less than 2 nM on KRas G12C. Besides, the IC50 at KRas WT was less than 2 nM; with HCT116 cells, 71 nM; on KRas G12D, less than 2 nM; with H460 cells, 17 nM; with ASPC1 cells it was 16 nM; in the assay on A549 cells it was 26 nM. The 50% inhibitory concentration (IC50) with PSN1 cells worked out at 405 nM.

Take `C=C1CN2CC(=C)CC2(COc2nc3c(c(N4CCC[C@@](C)(O)C4)n2)CCN(c2cc(O)cc4ccc(F)c(CC)c24)C3)C1` [Example 582, (R)-1-(2-((2,6-dimethylenetetrahydro-1H-pyrrolizin-7a(5H)-yl)methoxy)-7-(8-ethyl-7-fluoro-3-hydroxynaphthalen-1-yl)-5,6,7,8-tetrahydropyrido[3,4-d]pyrimidin-4-yl)-3-methylpiperidin-3-ol]: the IC50 with H358 cells is 40 nM; at KRas G12S, 2 nM; in the assay with H727 cells it was 204 nM; at KRas G12V, less than 2 nM; with MKN1 cells, 3.1 nM; at KRas G12C, 2 nM. The IC50 at KRas WT was less than 2 nM; with HCT116 cells, 219 nM; on KRas G12D, 3 nM; with H460 cells, 63 nM; in the assay with ASPC1 cells, 79 nM; in the assay on A549 cells, 86 nM. In the assay with PSN1 cells, this molecule had an IC50 of 2480 nM.
